Experimental data taken from US11130780B2, “Inhibitors of growth factor activation enzymes” (Washington University, priority 2015, dated 2021).
pKi: −log10 of the molar value. Read-outs that look alike come from different tables or passages of the source.

Assays:
Format in all cases: biochemical
HGFA = molecular target: T1, HGFA (Homo sapiens, UniProt Q04756); assay: Fluorescent kinetic enzyme inhibitor assay of HGFA; conditions: read-out: HGFA Ki
T1 construct: His6 tag (N); seven amino acid spacer and seven amino acid TEV cleavage site (N); Honey Bee melittin signal peptide (N); made in house; host or cells: High 5 insect cells (baculovirus; virus raised in Sf9)
T1 sequence (Q04756 373-655): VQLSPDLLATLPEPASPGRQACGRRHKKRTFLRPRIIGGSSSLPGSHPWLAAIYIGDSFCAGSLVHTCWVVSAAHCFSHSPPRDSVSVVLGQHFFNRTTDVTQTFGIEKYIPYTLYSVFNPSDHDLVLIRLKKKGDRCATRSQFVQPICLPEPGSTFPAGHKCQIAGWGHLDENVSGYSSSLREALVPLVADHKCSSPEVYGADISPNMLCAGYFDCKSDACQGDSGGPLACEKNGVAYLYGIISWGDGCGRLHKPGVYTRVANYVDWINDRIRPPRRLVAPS
Excerpt: Using primers identified as SEQ ID NO 1, SEQ ID NO 2, and standard PCR protocols, the nucleotide sequence encoding amino acids 373-655 of HGFA was synthesized. This PCR product was cloned into the SfoI-HindIII sites of a modified pFastBac HT baculovirus expression vector (Addgene, Cambridge, Mass.). This vector contains a six amino His tag followed by a seven amino spacer and a seven amino acid TEV cleavage site placed immediately downstream of the Honey Bee melittin signal peptide. Using a modified Bac to Bac Expression System (Life Technologies, Carlsbad, Calif.), recombinant HGFA bacmids were obtained by transforming DH10Bac Escherichia coli cells. To obtain HGFA containing baculovirus, purified bacmids were transfected into Sf9 insect cells. After 5 days in culture at 27° C., media was harvested from transfected Sf9 cells. This media was used to prepare baculovirus infected insect cells (BIICs). These BIIICs were used to infect High 5 insect cells. Four days post infection, media was harvested and recombinant protein prepared as follows. Media was chilled to 4° C. and spun at 4000×g for 20 minutes (all subsequent steps were performed at 4° C. unless noted). Clarified media was passed first through a Whatman GF/B 1 um (#1821-047, GE Healthcare Life Sciences, Piscataway, N.J.) and then a 0.22 um PES membrane (#99955, TPP Techno Plastic Products AG, Trasadingen, Switzerland) and then concentrated using a Pall Centramate tangential flow system and Centramate T-series Cassette (#OS010T12, Pall Corporation, Port Washington, N.Y.). Concentrated media was then buffer exchanged in two steps, five volumes of 50 mM Na-phosphate, 500 mM NaCl, pH 6.2, followed by five volumes of 50 mM Na-phosphate, 500 mM NaCl, pH 7.5. The concentrated and buffered exchanged insect cell media was again filtered as above and made 25 mM imidazole (#1202, Sigma-Aldrich, St. Louis, Mo.) and was mixed with nickel agarose beads (#H-321-25, Gold Biotechnology, Inc., St. Louis Mo.). After mixing this slurry for 12 hours, nickel agarose beads were allowed to settle by gravity and then loaded into a column. Beads were washed with buffer (25 mM Na-phosphate, 500 mM NaCl, 25 mM imidazole, pH 8) and the bound protein eluted using (25 mM Na-phosphate, 500 mM NaCl, 250 mM imidazole, pH 8). Using a Amicon Ultra-4 Centrifugal filters (#UFC801008, Merck Millipore, Ltd., Tullagreen, Ireland), peak protein fractions were concentrated and run over a Superdex-200 10/300 GL column (GE Healthcare Life Sciences, Piscataway, N.J.) in 10 mM Tris, 200 mM NaCl, 0.2 mM EDTA, pH 8. HGFA containing fractions were pooled, concentrated, made 50% glycerol, and stored at minus 20° C. Protein was quantitated using a modified Lowry protein assay (#500-0006, Bio-Rad Laboratories, Hercules, Calif.).
(§1) Inhibitors (11-pt serial dilutions, 0-20 μM final concentration in reaction) were serially diluted in DMSO (2% DMSO final concentration) and then mixed with either recombinant serine protease domain of HGFA [Z. Han, P. K. Harris, D. E. Jones, R. Chugani, T. Kim, M. Agarwal, W. Shen, S. A. Wildman, J. W. Janetka, Acs Med Chem Lett 2014, 5, 1219-1224], matriptase (Charles Craik, UCSF) or hepsin* (#4776-SE-010, R&D Systems, Minneapolis, Minn.) in black 384 well plates (Corning #3575. Corning, N.Y.). […] The final substrate concentrations for all assays were at the Km for the respective enzymes. Changes in fluorescence (excitation at 380 nm and emission at 460 nm) were measured at room temperature over time in a Biotek Synergy 2 plate reader (Winnoski, Vt.). Using GraphPad Prism version 6.04 software program, (GraphPad Software, San Diego, Calif., www.graphpad.com), a four parameter curve fit was used to determine the inhibitor IC50s from a plot of the mean reaction velocity versus the inhibitor concentration. The IC50 values represent the average of three separate experimental determinations.

hepsin = molecular target: T2, hepsin (Homo sapiens, UniProt P05981); assay: Fluorescent kinetic enzyme inhibitor assay of hepsin; conditions: Fluorogenic Assay, read-out: Hepsin Ki
T2 construct: purchased R&D Systems 4776-SE-010
T2 sequence (P05981 163-417 limits assumed): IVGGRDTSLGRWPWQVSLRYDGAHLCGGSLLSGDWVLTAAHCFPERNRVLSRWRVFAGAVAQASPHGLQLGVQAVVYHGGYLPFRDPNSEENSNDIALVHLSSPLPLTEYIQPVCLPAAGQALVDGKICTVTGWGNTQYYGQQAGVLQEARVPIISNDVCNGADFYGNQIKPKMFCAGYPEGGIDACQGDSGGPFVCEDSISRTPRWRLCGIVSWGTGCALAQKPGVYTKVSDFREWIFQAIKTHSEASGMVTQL
T2 sequence (P05981 45-162 partner limits assumed): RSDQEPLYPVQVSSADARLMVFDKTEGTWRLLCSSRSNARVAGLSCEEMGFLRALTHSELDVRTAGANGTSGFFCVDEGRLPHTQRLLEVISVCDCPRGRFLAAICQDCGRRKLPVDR
Protocol: as §1

matriptase = molecular target: T3, matriptase (Homo sapiens, UniProt Q9Y5Y6); assay: Fluorescent kinetic enzyme inhibitor assay of matriptase; conditions: Fluorogenic Assay
T3 construct: Charles Craik, UCSF (obtained from another laboratory)
T3 sequence (Q9Y5Y6 615-855 limits assumed): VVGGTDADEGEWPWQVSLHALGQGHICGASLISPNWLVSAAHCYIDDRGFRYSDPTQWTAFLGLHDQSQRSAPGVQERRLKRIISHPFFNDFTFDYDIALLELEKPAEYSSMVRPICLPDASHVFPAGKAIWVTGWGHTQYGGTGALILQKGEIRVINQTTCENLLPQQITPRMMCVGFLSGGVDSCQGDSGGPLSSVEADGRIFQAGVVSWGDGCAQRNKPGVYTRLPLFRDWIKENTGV
Protocol: as §1

thrombin = thrombin (Homo sapiens, UniProt P00734); assay: Chromogenic kinetic enzyme assay of thrombin; conditions: for pKi: read-out: Thrombin Ki
Protocol: Inhibitors (11-pt serial dilutions, 0-20 μM final concentration) were serially diluted in DMSO (2% DMSO final concentration) and then mixed with recombinant thrombin (0.15 nM final concentration) or Factor Xa (0.35 nM final concentration) in TNC buffer (25 mM Tris, 150 mM NaCl, 5 mM CaCl2, 0.01% TRITON X-100, pH 8) using clear 384 well plates. […] Changes in absorbance at 405 nm were measured over time in a Biotek Synergy 2 plate (Winnoski, Vt.). Using GraphPad Prism version 6.04 software program, (GraphPad Software, San Diego, Calif., www.graphpad.com), a four parameter curve fit was used to determine the inhibitor IC50s from a plot of the mean reaction velocity versus the inhibitor concentration. Ki values were calculated from the IC50 values using the Cheng and Prusoff equation (Ki=IC50/(1+[S]/Km).

`Cc1ccc(S(=O)(=O)N[C@@H](Cc2cccc(C(=N)N)c2)C(=O)N2CCC(c3ccccc3)CC2)cc1` [Compound 25b, (S)-3-(2-(4-Methylphenylsulfonamido)-3-oxo-3-(4-phenylpiperidin-1-yl)propyl)benzimidamide] gave a pKi (HGFA; Table 9.1, Fluorogenic Assay) of 4.70, a pKi (hepsin; Table 9.1) of 5.32 and a pKi (matriptase; Table 9.1) of 6.24.

`Cc1ccc(S(=O)(=O)N[C@@H](Cc2cccc(C(=N)N)c2)C(=O)N2CCCC(C(=O)NCCc3ccccc3)C2)cc1` (stereo partly drawn) [Compound 25c, 1-((S)-3-(3-Carbamimidoylphenyl)-2-(4-methylphenylsulfonamido)propanoyl)-N-phenethylpiperidine-3-carboxamide] gave a pKi (HGFA; Table 9.2, Fluorogenic Assay) of less than 4.30, a pKi (hepsin; Table 9.2) of 6.17 and a pKi (matriptase; Table 9.2) of 5.89.

`CCCCCCNC(=O)N1CCN(C(=O)[C@H](Cc2cccc(C(=N)N)c2)NS(=O)(=O)c2ccc3ccccc3c2)CC1` [Compound 25d, (S)-4-(3-(3-Carbamimidoylphenyl)-2-(naphthalene-2-sulfonamido)propanoyl)-N-hexylpiperazine-1-carboxamide] was tested, and the pKi (HGFA; Table 9.1, Fluorogenic Assay) was less than 4.30, the pKi (hepsin; Table 9.1) was 5.89 and the pKi (matriptase; Table 9.1) was 4.83. For the same molecule, the pKi (matriptase; Table 9.1, listed as FMF-1-278-003) was 4.83.

Work on `N=C(N)c1cccc(C[C@H](NS(=O)(=O)c2ccc3ccccc3c2)C(=O)N2CCN(C(=O)c3csc4ccccc34)CC2)c1` [Compound 25e, (S)-3-(3-(4-(Benzo[b]thiophene-3-carbonyl)piperazin-1-yl)-2-(naphthalene-2-sulfonamido)-3-oxopropyl)benzimidamide] yielded a pKi (HGFA; Table 9.1, Fluorogenic Assay) of less than 4.30, a pKi (hepsin; Table 9.1) of 5.43 and a pKi (matriptase; Table 9.1) of 5.92.

Work on `N=C(N)c1cccc(C[C@H](NS(=O)(=O)c2ccc3ccccc3c2)C(=O)N2CCC[C@@H](NC(=O)OCc3ccccc3)C2)c1` [Compound 25f, Benzyl (R)-1-((S)-3-(3-carbamimidoylphenyl)-2-(naphthalene-2-sulfonamido)propanoyl)piperidin-3-ylcarbamate] yielded a pKi (HGFA; Table 9.2, Fluorogenic Assay) of less than 4.30, a pKi (hepsin; Table 9.2) of 5.55 and a pKi (matriptase; Table 9.2) of 5.31.

With `N=C(N)c1cccc(C[C@H](NS(=O)(=O)c2ccc3ccccc3c2)C(=O)N2CCN(c3ccccc3)CC2)c1` [Compound 25g, (S)-3-(2-(Naphthalene-2-sulfonamido)-3-oxo-3-(4-phenylpiperazin-1-yl)propyl)benzimidamide] the pKi (HGFA) was 4.74, the pKi (hepsin; Table 9.1) was 5.15 and the pKi (matriptase; Table 9.1) was 5.74.

Work on `CC(C)c1cc(C(C)C)c(S(=O)(=O)N[C@@H](Cc2cccc(C(=N)N)c2)C(=O)N2CCN(c3ccccc3)CC2)c(C(C)C)c1` [Compound 27, (S)-3-(3-Oxo-3-(4-phenylpiperazin-1-yl)-2-((2,4,6-triisopropylphenyl)sulfonamido)propyl)benzimidamide] yielded a pKi (HGFA) of 4.65, a pKi (hepsin; Table 9.1) of 5.13 and a pKi (matriptase; Table 9.1) of 6.12.

With `CC(=O)N[C@@H](CCCCN)C(=O)N[C@@H](CCCNC(=N)N)C(=O)N[C@@H](CC(C)C)C(=O)N[C@@H](CCCNC(=N)N)C(=O)c1nc2ccc(C(=O)NCc3ccc(C(=O)O)cc3)cc2s1` [Compound 7164, Ac-KRLR(SEQ ID NO: 8)-kbt-Benzyl-3-COOH] the pKi (thrombin; Table 6.2, headed Fluorogenic Assay) was 5.79.

For `N=C(N)NCCC[C@H](NC(=O)[C@@H]1CCCCN1C(=O)[C@H](N)Cc1ccccc1)C(=O)Nc1ccc([N+](=O)[O-])cc1` [Compound S2238, D-Phe-Pip-Arg-pNA, reference compound], the Km (thrombin; read-out: Km of chromogenic substrate for thrombin) was 14.5 µM.

`Cc1nc(-c2cccc(C[C@H](NS(=O)(=O)c3ccc4ccccc4c3)C(=O)N3CCN(C(=O)NCc4ccccc4)CC3)c2)no1` [FMF-1-254-004] showed a pKi (HGFA; Table 9.3, Fluorogenic Assay) of less than 4.30, a pKi (hepsin; Table 9.3) of less than 5.00 and a pKi (matriptase; Table 9.3) of less than 5.00.

For `CC(C)c1cc(C(C)C)c(S(=O)(=O)N[C@@H](Cc2cccc(C(=N)N)c2)C(=O)N2CCN(C(=O)C3CCN(C(=N)N)CC3)CC2)c(C(C)C)c1` [JWJ-I-135], the pKi (thrombin; Table 9.4) was less than 5.70 and the pKi (HGFA; Table 9.1, Fluorogenic Assay) was 4.75.
